The numbers were not newly measured in patent US20160075995A1, “SWEAT GLAND-DERIVED STEM CELLS AND METHODS OF USE” (priority 2014, published 2016), which cites them from elsewhere.

SMILES strings stand for the structures.

The conditions of data set [1]: DMSO.
The conditions of data set [2]: published reports.

For `c1cc(-c2cnn3cc(-c4ccc(OCCN5CCCCC5)cc4)cnc23)ccn1` [dorsomorphin], in data set [1], the solubility entry is recorded as “soluble in DMSO”. In data set [2], the toxicity result was “low toxicity”.
